According to patent US9492382B2, “Hyperbranched polyester having a hydrophobic core for solubilizing active ingredients of low solubility” (BASF SE, priority 2009, dated 2016):

Assay: physchem
Conditions: pH 7, aqueous buffer, thermodynamic from solid
Method: 2 g of polymer were weighed out into a 50 ml glass beaker. Then 0.2 g of each active ingredient was weighed out into the batch to give a supersaturated solution. […] The mixture was then stirred at room temperature for 72 hours, using a magnetic stirrer. After a rest time of one hour, excess (i.e., unsolubilized) active ingredient was removed by filtration. The resulting clear or opaque solution was then analyzed for its active ingredient content by means of UV spectroscopy or HPLC.
The results are compiled in tables 2 and 3.

solubility at 72 h: < 0.1 mg/mL
Compound: Clc1ccccc1C(c1ccccc1)(c1ccccc1)n1ccnc1 [Clotrimazole]
